For data set [1] the following is noted: cited from earlier work.
For data set [2] the following is noted: manufacturers' literature; cited from earlier work.
A short description of the next data set: PEL. The conditions noted are these: Honeywell internal PEL. The source says: Table 1 and Table 2, below, list the properties of 1233zd(E) and 1234ze(E) compared to other commonly used blowing agents.
Table 3A and Table 3B list the properties of 1233zd(E) compared to some non-flammable blowing agents, such as 245fa and 141b, and various flammable blowing agents, such as methyl formate and hydrocarbons. […] Note that the global warming potential (GWP) of 1233zd(E) of less than 5 is the lowest among all blowing agents compared. Moreover, the GWP of 1233zd(E) is more than two orders of magnitude lower than that of the currently utilized 245fa, and is more than one order of magnitude lower than the present limitations in the EU F-Gas Regulation.

Structures can show the parent of a compound that is named as a salt. Where two headings read alike, the source gives them in different places.

The values that follow come from US20180312651A1, “FOAMS AND ARTICLES MADE FROM FOAMS CONTAINING HCFO OR HFO BLOWING AGENTS” (HONEYWELL INTERNATIONAL INC., priority 2011, published 2018).

`CC(F)(Cl)Cl` [141b, 1,1-dichloro-1-fluoroethane]: in data set [1], the “LFL/UFL (Vol % in Air)” value was 7.6-17.7 Vol %. Also, in data set [2], the PEL is 500 ppm.
Regarding `CC(F)(F)Cl` [142b, 1-chloro 1,1-difluoroethane], the “LFL/UFL (Vol % in Air)” value in data set [1] is reported as 8.0-15.4 Vol %. For the same molecule, the PEL in data set [2] was 1000 ppm.
As for `FC(F)CC(F)(F)F` [245fa, 1,1,1,3,3-pentafluoropropane], the “LFL/UFL (Vol % in Air)” value in data set [1] was “None”. In addition, the PEL in data set [2] is 300 ppm.
For the molecule `CC(F)(F)CC(F)(F)F` [365mfc, 1,1,1,3,3-pentafluorobutane], the “LFL/UFL (Vol % in Air)” value in data set [1] is on record as 3.6-13.3 Vol %. The PEL in data set [2] was 1000 ppm.
Take `FC(F)(F)/C=C/Cl` [1233zd(E), trans-1-chloro-3,3,3-trifluoropropene]: the PEL in “PEL” was 300^5; in data set [2], 300 ppm. For the same molecule, the “LFL/UFL (Vol % in Air)” value in data set [1] is listed as “None”.
`F/C=C/C(F)(F)F` [1234ze(E), trans-1,3,3,3-tetrafluoropropene]: the “LFL/UFL (Vol % in Air)” value in data set [1] was “None”. The PEL in data set [2] is 1000 ppm.
Take `C1CCCC1` [C-C5, cyclopentane]: in data set [1], the “LFL/UFL (Vol % in Air)” value is recorded as 1.5-8.7 Vol %.
Regarding `COC=O` [Methyl Formate, methyl formate], in data set [1], the “LFL/UFL (Vol % in Air)” value is reported as 5.0-23.0 Vol %. Moreover, the PEL in data set [2] was 600 ppm.
Consider `FC(Cl)Cl` [compound 22, dichlorofluoromethane], for which, in data set [1], the “LFL/UFL (Vol % in Air)” value is listed as “None”. Moreover, the PEL in data set [2] was 1000 ppm.
Take `CCC(C)C` [isopentane]: the “LFL/UFL (Vol % in Air)” value in data set [1] is listed as 1.4-8.3 Vol %. Also, the PEL in data set [2] was 600 ppm.
Regarding `CCCCC` [normal pentane, n-pentane], in data set [1], the “LFL/UFL (Vol % in Air)” value is given as 1.4-8.3 Vol %. In addition, the PEL in data set [2] was 600 ppm.
